Data on one molecule can be found in patent publication US20260053764A1, “COMPOSITION FOR PREVENTING DETERIORATION IN COGNITIVE FUNCTION AND/OR IMPROVING COGNITIVE FUNCTION” (PHARMA FOODS INTERNATIONAL CO., LTD., priority 2020, published 2026).

The assay has as its system IGF-1 (insulin-like growth factor-1). The experiment in a line: Blood test, IGF-1 concentration in blood. The conditions noted are these: 200 mg ingestion test. Type of assay: in vivo, human. The source says: While there are still many unclear points regarding the biochemical mechanism regarding reduction in cognitive function, the IGF-1 (insulin-like growth factor-1) level in blood is known to be reduced by aging. […] In one embodiment of the present disclosure, the composition of the present disclosure can be a composition for suppressing reduction in cognitive function and/or improving the cognitive function through elevation of the IGF-1 concentration in blood.
Among the 120 subjects in Example 1, a total of six blood tests were carried out to the total of 60 subjects who participated in test, wherein blood tests were carried out upon screening, before starting test food ingestion, after four weeks of ingestion, after eight weeks of ingestion, after twelve weeks of ingestion and four weeks after ending ingestion, as shown with ● in the test schedule in Table 1.

For `NCCCC(=O)O` [GABA, γ-aminobutyric acid], the IGF-1 (blood, before ingestion, mean ± SD) turned out to be 71.0 ± 21.5 ng/mL. Under “vs. before ingestion”, the “IGF-1 in the group that ingested GABA” value is “tendency of increase”.
